Measurements from BigSolDB 2.1.

Cn1cc[n+](CCC[n+]2ccn(C)c2)c1.F[P-](F)(F)(F)(F)F.F[P-](F)(F)(F)(F)F
solubility (mole fraction) (in 2-butanone, 290.15 K): 0.00292 | solubility (mole fraction) (in 2-butanone, 294.15 K): 0.00339 | solubility (mole fraction) (in 2-butanone, 299.35 K): 0.00404 | solubility (mole fraction) (in 2-butanone, 303.15 K): 0.00458 | solubility (mole fraction) (in 2-butanone, 308.15 K): 0.00524 | solubility (mole fraction) (in 2-butanone, 313.25 K): 0.00598 | solubility (mole fraction) (in 2-butanone, 318.15 K): 0.00671 | solubility (mole fraction) (in 2-butanone, 323.15 K): 0.00738 | solubility (mole fraction) (in 2-butanone, 328.15 K): 0.00811 | solubility (mole fraction) (in 2-butanone, 335.25 K): 0.00913 | solubility (mole fraction) (in acetone, 289.15 K): 0.0365 | solubility (mole fraction) (in acetone, 293.15 K): 0.0401 | solubility (mole fraction) (in acetone, 296.65 K): 0.0433 | solubility (mole fraction) (in acetone, 301.15 K): 0.0485 | solubility (mole fraction) (in acetone, 306.15 K): 0.0551 | solubility (mole fraction) (in acetone, 310.15 K): 0.0605 | solubility (mole fraction) (in acetone, 315.15 K): 0.0681 | solubility (mole fraction) (in acetone, 321.15 K): 0.0772 | solubility (mole fraction) (in acetophenone, 289.15 K): 0.000417 | solubility (mole fraction) (in acetophenone, 293.15 K): 0.000461 | solubility (mole fraction) (in acetophenone, 296.65 K): 0.0005 | solubility (mole fraction) (in acetophenone, 302.15 K): 0.00056 | solubility (mole fraction) (in acetophenone, 307.15 K): 0.000619 | solubility (mole fraction) (in acetophenone, 312.15 K): 0.000683 | solubility (mole fraction) (in acetophenone, 317.35 K): 0.000743 | solubility (mole fraction) (in acetophenone, 321.65 K): 0.000807 | solubility (mole fraction) (in acetophenone, 328.15 K): 0.000899 | solubility (mole fraction) (in acetophenone, 333.15 K): 0.000996 | solubility (mole fraction) (in acetylacetone, 288.55 K): 0.000598 | solubility (mole fraction) (in acetylacetone, 293.15 K): 0.000876 | solubility (mole fraction) (in acetylacetone, 297.45 K): 0.0012 | solubility (mole fraction) (in acetylacetone, 302.65 K): 0.00172 | solubility (mole fraction) (in acetylacetone, 307.85 K): 0.00241 | solubility (mole fraction) (in acetylacetone, 313.15 K): 0.00325 | solubility (mole fraction) (in acetylacetone, 317.65 K): 0.00411 | solubility (mole fraction) (in acetylacetone, 323.15 K): 0.00532 | solubility (mole fraction) (in acetylacetone, 327.35 K): 0.00639 | solubility (mole fraction) (in acetylacetone, 334.65 K): 0.0084 | solubility (mole fraction) (in cyclohexanone, 289.65 K): 0.000151 | solubility (mole fraction) (in cyclohexanone, 294.15 K): 0.000222 | solubility (mole fraction) (in cyclohexanone, 299.15 K): 0.000331 | solubility (mole fraction) (in cyclohexanone, 303.15 K): 0.000443 | solubility (mole fraction) (in cyclohexanone, 308.15 K): 0.000622 | solubility (mole fraction) (in cyclohexanone, 313.25 K): 0.000852 | solubility (mole fraction) (in cyclohexanone, 318.15 K): 0.00112 | solubility (mole fraction) (in cyclohexanone, 323.15 K): 0.00143 | solubility (mole fraction) (in cyclohexanone, 328.15 K): 0.00181 | solubility (mole fraction) (in cyclohexanone, 333.15 K): 0.00224 | solubility (mole fraction) (in water, 289.15 K): 7.7e-05 | solubility (mole fraction) (in water, 293.15 K): 0.000102 | solubility (mole fraction) (in water, 297.65 K): 0.000137 | solubility (mole fraction) (in water, 304.75 K): 0.000216 | solubility (mole fraction) (in water, 309.35 K): 0.000289 | solubility (mole fraction) (in water, 313.25 K): 0.000366 | solubility (mole fraction) (in water, 317.15 K): 0.000454 | solubility (mole fraction) (in water, 322.65 K): 0.000611 | solubility (mole fraction) (in water, 327.15 K): 0.00078 | solubility (mole fraction) (in water, 332.65 K): 0.00104
